This experiment deals with Staphylococcus epidermidis. Nature of the experiment: Beneficial skin bacteria affinity evaluation (challenge test). The conditions noted are these: Experimental Example 1; ingredient in oil-in-water composition of Preparation Example 1; FIG. 2 / FIG. 3. The class given is cell-based. The text has this: As the beneficial bacteria serving as the affinity evaluation criterion of each composition prepared in Preparation Example 1, Staphylococcus epidermidis (S. epidermidis), a Gram positive bacterium, was selected. S. epidermidis is part of the skin flora present in large numbers in healthy skin, and is a representative beneficial bacterium that helps improve skin immunity and protect skin from external environmental factors by producing peptide antibiotics or PSM (phenol-soluble modulins) (Parlet, C. P., et al. (2019) Trends in microbiology, 27(6), 497-507). The evaluation of affinity for beneficial bacteria was performed by the challenge test method (Russell A. D., (2003), Int J Cosmet Sci., 25(3), 147-153) as follows.
Specifically, S. epidermidis was first incubated in TSA (Tryptic Soy Agar) medium at 37° C. for 24 hours, and then inoculated into 50.0 g of each composition prepared in Preparation Example 1 so as to be 1×10^6 CFU to 1×10^7 CFU (colony-forming units)/mL. After inoculation, the bacteria were evenly mixed in the composition by vortexing or using a sterilized stick. After inoculation, the mixture was stored at room temperature. In consideration of the product usage cycle, such as cosmetics, and the general usage patterns of these products, a maximum of 24 hours was set as the time required for examination. With this determination, 24 hours after inoculation, 1 mL of the composition inoculated with the bacteria was diluted stepwise using a 0.85% NaCl solution, 100 μL of each diluted solution was spread on TSA medium, incubation was conducted at 37° C. for 48 hours, and then CFUs were counted.
As the affinity evaluation criterion, the following “bacterial growth index*” parameter was used, and a composition having a bacterial growth index of −1.00 or more on day 1 after inoculation of bacteria was selected as a “cosmetic with beneficial skin bacteria-friendly properties” having an effect of maintaining beneficial skin bacteria or enhancing beneficial skin bacteria.
*Bacterial growth index=log10[{Number of viable bacteria (CFU/g)}/{Number of inoculated bacteria (CFU/g)}]
As to sodium dilauramidoglutamide lysine, the “growth of beneficial bacteria (result in words)” value (“growth of beneficial bacteria” below) was “did not inhibit the growth of beneficial bacteria”.
Take inulin lauryl carbamate: the “growth of beneficial bacteria” value is recorded as “did not inhibit the growth of beneficial bacteria”.
Then diethoxyethyl succinate, with “inhibit the growth of beneficial bacteria”.
Turning to `C=CCCCCCCCCC(=O)OCCCCCCC` [heptyl undecylenate], the “growth of beneficial bacteria” value is recorded as “inhibit the growth of beneficial bacteria”.
The value for `CCOCCOCCOC(=O)C1CCC(C(=O)OCCOCCOCC)CC1` (centres unmarked) [bis-ethoxydiglycol cyclohexane 1,4-dicarboxylate] was “inhibit the growth of beneficial bacteria”.

Source of the values: patent publication US20230381094A1, “Cosmetic Composition with Skin Microbiome-Friendly Properties” (LG Household & Health Care Ltd., priority 2022, published 2023).
